Values quoted from earlier work, collected in publication PMC8762078, “An ALS-associated variant of the autophagy receptor SQSTM1/p62 reprograms binding selectivity toward the autophagy-related hATG8 proteins” (The Journal of Biological Chemistry, 2021).
Entries after “also recorded” stand apart in the source; their conditions may differ.

How the values were obtained:
GABARAPL2 = GABARAPL2 (Homo sapiens, UniProt P60520); conditions: ITC, compared with p62 WT-AIM
Excerpt: A comparison may be drawn between the GABARAPL2/p62 AIM model produced here and the GABARAPL2/UBA5 AIM structure, the only published structure of an AIM-bound GABARAPL2 ([38]). Both involve the formation of an intermolecular β-sheet between the AIM and the β2 strand of GABARAPL2; however, the UBA5 AIM is atypical, and this produces a noncanonical interaction. The UBA5 AIM sequence ([…]) leads to the formation of a binding pocket not observed in the GABARAPL2/p62 AIM model proposed here or in any other hATG8/AIM interaction, due to the spacing of the key residues. The RMSD between these two ...

motor neurone-like cells = test system: motor neurone-like cells
Excerpt: Autophagy is a central pathway for the removal of aggregated or damaged proteins and organelles and is critical to cellular homeostasis. Deregulation of autophagy is recognized as a pathogenic mechanism contributing to a range of neurodegenerative disorders, including amyotrophic lateral sclerosis (ALS) and frontotemporal lobar degeneration (FTLD) ([1], [2], [3], [4]). These conditions form a disease spectrum (ALS-FTLD) defined primarily by ubiquitinated inclusions of TAR DNA-binding protein-43 kDa in neurones ([5]). The link between ALS-FTLD and autophagy is reinforced by the identification o ... || A clear effect of the ALS-associated L341V mutation of p62/hATG8 interactions has been shown through these in vitro studies, though the impact remains relatively modest with individual interaction affinity alterations of up to approximately twofold. However, the interactions are best contextualized around the tendency for p62 to assemble into nanoscale filaments, which have been amenable to cryo-EM structural characterization (Fig. 6A) ([17], [52]). The N-terminal PB1 domain of p62 assembles into a helical protein scaffold with the flexible C-terminal chain, which carries the AIM and UBA domai ...

Chain of GABARAPL2 (P60520 whole entry): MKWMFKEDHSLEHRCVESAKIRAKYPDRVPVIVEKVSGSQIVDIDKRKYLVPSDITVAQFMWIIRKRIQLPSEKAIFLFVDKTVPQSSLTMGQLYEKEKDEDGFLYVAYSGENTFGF

| Substance | thermodynamic profile of GABARAPL2/UBA5 interaction (GABARAPL2) | p62 recruitment into autophagic vesicles (motor neurone-like cells) |
| --- | --- | --- |
| WGIELV [UBA5 AIM] | more enthalpically driven than the interaction with p62 reported here | – |
| p62 L341V: ALS-associated L341V variant of the SQSTM1/p62 autophagy receptor | – | defect in p62 protein recruitment into autophagic vesicles; also recorded: reduction in p62 recruitment to acidic autophagic vesicles |
